Experimental data reported in patent US5516777A, “Condensed pyrazole derivatives, and androgen inhibitor” (Otsuka Pharmaceutical Co., Ltd., priority 1992, dated 1996).

Legend:
[1] = In vitro drug metabolism in rat liver extract; format: in vitro ADME, male Wistar rats; conditions: pH 7.4, 37° C.; for remaining at 5 min / remaining at 0.25 h / remaining at 0.5 h / remaining at 1 h: rat liver extract; for remaining at 5 min: read-out: Residual amount of test compound, 5 min.; for remaining at 0.25 h: 15 min., read-out: Residual amount of test compound, 15 min.; for remaining at 0.5 h: 30 min., read-out: Residual amount of test compound, 30 min.; for remaining at 1 h: 60 min., read-out: Residual amount of test compound, 60 min.; for half-life: half-life in the rat liver extract, read-out: Half-time period
Protocol: 2. In vitro drug metabolism in rat liver extract
The resistance of the compound against metabolic degradation by rat liver extract was investigated.
The male Wistar rats (weighing about 200 g) were used after fasting for 24 hours. The rat was sacrificed under ether anesthesia, and the livers were removed and were placed onto the ice.
The liver was minced with scissors under ice-cooling, and homogenized in the presence of 4 volumes of 1.15% KCl-0.1M phosphate buffer (pH 7.4) with a Potter type homogenizer. The homogenates were centrifuged at 9,000×g for 10 minutes at 4° C., and the supernatant filtered through the cheese-cloth was used as an enzyme solution.
The constitution of the reaction mixture was shown in below. 0.1M Buffer was sufficiently bubbled in 95% O2 -5% CO2 gas before use.
Glucose 6-phosphate (60.8 mg.ml)
Nicotineamide (9.16 mg/ml)
The tested samples were dissolved in dimethyl sulfoxide. MgCl2 ·6H2 O was dissolved in a distilled water, and all other reagents were dissolved in 0.1M phosphate buffer. The reaction was initiated by adding enzyme solution, and shaked at 37° C. with 120 cycles/minutes in Spitz test tubes with stoppers. The reaction was stopped by adding methanol after 5, 15, 30 and 60 minutes.
After termination of the reaction, samples were mixed by using of a Vortex mixer, and centrifuged at 3,000 rpm for 10 minutes. The supernatant was applied to a high-performance liquid chromatography of which conditons are shown in below. A residual amount of the mother compound was determined at certain time intervals, whererby half-life of the compound in the rat liver extract was calculated.
Column: Chemcosorb 5C18-300 Å 4.6 mm diameter and 150 mm length
Colume temperature: 50° C.

[2] = target: T1, rat prostate androgen receptor (Rattus norvegicus, UniProt P15207); conditions: 1 nM ^3 H-mibolerone, 20 hours at 0° C., rat ventral prostate cytosol; read-out: Inhibitory activity on mibolerone specific binding [IC50 (M)]
T1 sequence (P15207 1-902): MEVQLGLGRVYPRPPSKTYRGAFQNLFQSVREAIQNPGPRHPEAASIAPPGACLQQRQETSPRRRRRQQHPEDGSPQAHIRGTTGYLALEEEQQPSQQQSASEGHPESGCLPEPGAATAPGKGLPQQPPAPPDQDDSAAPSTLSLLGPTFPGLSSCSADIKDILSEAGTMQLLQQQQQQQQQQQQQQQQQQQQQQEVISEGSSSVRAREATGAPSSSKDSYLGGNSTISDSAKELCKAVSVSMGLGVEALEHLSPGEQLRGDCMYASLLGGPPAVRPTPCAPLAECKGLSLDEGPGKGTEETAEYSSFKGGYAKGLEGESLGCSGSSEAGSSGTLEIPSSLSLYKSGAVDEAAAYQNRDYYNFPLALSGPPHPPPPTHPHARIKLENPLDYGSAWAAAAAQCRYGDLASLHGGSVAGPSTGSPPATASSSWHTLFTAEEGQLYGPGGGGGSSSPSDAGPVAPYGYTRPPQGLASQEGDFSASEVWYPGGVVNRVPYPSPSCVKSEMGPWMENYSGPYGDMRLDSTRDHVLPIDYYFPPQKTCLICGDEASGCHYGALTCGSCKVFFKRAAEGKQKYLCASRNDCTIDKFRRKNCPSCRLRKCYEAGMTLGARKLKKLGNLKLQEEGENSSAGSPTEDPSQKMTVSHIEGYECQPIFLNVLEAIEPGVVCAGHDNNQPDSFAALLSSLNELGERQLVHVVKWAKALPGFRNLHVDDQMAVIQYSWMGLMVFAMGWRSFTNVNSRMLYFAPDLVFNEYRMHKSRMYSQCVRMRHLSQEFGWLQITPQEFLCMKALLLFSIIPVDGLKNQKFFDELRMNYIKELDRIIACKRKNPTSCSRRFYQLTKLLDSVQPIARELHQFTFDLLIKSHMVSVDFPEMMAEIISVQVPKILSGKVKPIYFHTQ
Protocol: Assay of inhibitory activity to binding of ^3 H-mibolerone on rat prostate androgen receptor
(1) Preparation of Cytosol from Rat Prostate
The rats were killed 24 hours after castration, and the ventral prostate glands were removed, and was gently homogenized, with three volume of buffer solution A (1.5 mM EDTA, 2 mM dithiothreitol, 10 mM molybdate sodium, 10% by volume of glycerol, 10 mM NaF, 25 mM phosphate sodium, pH 7.2) on ice-water bath, in Polytron, and Potter type homogenizer. The obtained homogenate was filtrated through double gauze, and centrifuged at 105,000×g for 60 minutes at 4° C., and the supernatant was obtained as cytoplasm fraction.
(2) Measurement of Specific binding of ^3 H-mibolerone to Prostate Cytoplasm Androgen Receptor
To the cytoplasm fraction obtained in (1) was added ^3 H-mibolerone (87.0 Ci/millimol), so that a final concentration is adjusted to 1 nM, and at the same time, in order to block binding of ^3 H-mibolerone to progestin receptor, triamsinolone acetonide was added to a final concentration of 5 μM, and the final volume was adjusted to 0.4 ml with buffer solution A, and the reaction mixture was incubated for 20 hours at 0° C. After incubation, 0.5 ml of 60% hydroxylapatite slurry (washed and equilibrate with a buffer solution B: 10 mM NaH2 PO4, 20 mM tris-hydrochloric acid, pH 7.2) was added, and incubated for 10 minutes at 0° C., the solution was transferred onto a glass fiber filter, and washed five times with 5 ml portions of buffer solution B containing 0.1% (weight/volume) of Triton X-100, to remove free ^3 H-mibolerone. This glass fiber was transferred into vial, and 10 ml of aquasol- 2 was added, and the radioactivity was measured, and the total binding amount of ^3 H-mibolerone on prostate cytoplasm androgen receptor was determined.
The nonspecific binding amount was determined similarly by adding an unlabeled 5α-DHT in the reaction solution to a final concentration of 1 μM. The difference between the total binding amount and nonspecific binding amount was determined as the specific binding amount on the androgen receptor.
(3) Inhibitory Activity of Sample Compounds on ^3 H-mibolerone Specific Binding
The various concentrations of compounds obtained in the experiments were added simultaneously with ^3 H-mibolerone to incubate same as in (2), and the specific binding amount of ^3 H-mibolerone on androgen receptor was determined. Comparing this value with the value obtained in (2), the IC50 value of inhibitory activity of the compounds on ^3 H-mibolerone specific binding was determined.

Oc1ncnc2c(-c3ccc(Sc4ccccc4)cc3)cnn12 [Compound A1, reference compound]
remaining at 5 min [1]: 32.3%
remaining at 0.25 h [1]: 13.8%
remaining at 0.5 h [1]: 13.1%
remaining at 1 h [1]: 13%
half-life [1]: 2.4 min

Cc1cc(-c2cnn3c(O)ncnc23)ccc1Sc1ccccc1 [Compound A2, reference compound]
remaining at 5 min [1]: 32.5%
remaining at 0.25 h [1]: 14.8%
remaining at 0.5 h [1]: 13.7%
remaining at 1 h [1]: 12.3%
half-life [1]: 2.5 min

COc1cc(-c2cnn3c(O)ncnc23)ccc1Sc1ccccc1 [Compound A3, reference compound]
remaining at 5 min [1]: 38.3%
remaining at 0.25 h [1]: 18.6%
remaining at 0.5 h [1]: 19.2%
remaining at 1 h [1]: 16.5%
half-life [1]: 3 min

Cc1cc(-c2cnn3c(O)ccnc23)ccc1Sc1ccccc1 [Compound B1, reference compound]
remaining at 5 min [1]: 46.5%
remaining at 0.25 h [1]: 25.6%
remaining at 0.5 h [1]: 25.1%
remaining at 1 h [1]: 27%
half-life [1]: 4.6 min

COc1cc(-c2cnn3c(O)ccnc23)ccc1Sc1ccccc1 [Compound B2, reference compound]
remaining at 5 min [1]: 54.3%
remaining at 0.25 h [1]: 32.9%
remaining at 0.5 h [1]: 31.4%
remaining at 1 h [1]: 24.4%
half-life [1]: 6.5 min

Oc1ccnc2c(-c3ccc(Cc4ccccc4)cc3)cnn12 [Example 2, 3-(4-benzylphenyl)-7-hydroxypyrazolo[1,5-a]pyrimidine]
remaining at 5 min [1]: 81.3%
remaining at 0.25 h [1]: 86.1%
remaining at 0.5 h [1]: 84.2%
remaining at 1 h [1]: 80.2%
half-life [1]: > 60 min
IC50 [2]: 2.8e-07 M

Oc1ncnc2c(-c3ccc(Cc4ccccc4)c(Cl)c3)cnn12 [Example 3, 8-(4-benzyl-3-chloro)phenyl-4-hydroxypyrazolo[1,5-a]-1,3,5-triazine]
IC50 [2]: 4e-07 M

COc1cc(-c2cnn3c(O)ncnc23)ccc1Cc1ccccc1 [Example 4, 8-(4-benzyl-3-methoxy)phenyl-4-hydroxypyrazolo[1,5-a]-1,3,5-triazine]
remaining at 5 min [1]: 56.9%
remaining at 0.25 h [1]: 44.6%
remaining at 0.5 h [1]: 49.9%
remaining at 1 h [1]: 38.2%
half-life [1]: 30 min
IC50 [2]: 7.4e-08 M

Cc1cc(-c2cnn3c(O)ncnc23)ccc1Cc1ccccc1 [Example 5, 8-(4-benzyl-3-methyl)phenyl-4-hydroxypyrazolo[1,5-a]-1,3,5-triazine]
remaining at 5 min [1]: 93.7%
remaining at 0.25 h [1]: 89.9%
remaining at 0.5 h [1]: 82.7%
remaining at 1 h [1]: 83.8%
half-life [1]: > 60 min
IC50 [2]: 3e-08 M

COc1cc(-c2cnn3c(O)ncnc23)ccc1Cc1ccccc1C [Example 7]
IC50 [2]: 6.2e-08 M

COc1cc(-c2cnn3c(O)ncnc23)ccc1Cc1ccc(C)cc1 [Example 8]
IC50 [2]: 1.1e-07 M

COc1ccccc1Cc1ccc(-c2cnn3c(O)ncnc23)cc1OC [Example 9]
IC50 [2]: 9.5e-08 M

COc1cccc(Cc2ccc(-c3cnn4c(O)ncnc34)cc2C)c1 [Example 10, 4-hydroxy-8-[4-(3-methoxyphenylmethyl)-3-methyl]phenylpyrazolo[1,5-a]-1,3,5-triazine]
remaining at 5 min [1]: 77.6%
remaining at 0.25 h [1]: 57.1%
remaining at 0.5 h [1]: 62%
remaining at 1 h [1]: 55.2%
half-life [1]: > 60 min
IC50 [2]: 1.2e-08 M

Cc1ccc(Cc2ccc(-c3cnn4c(O)ncnc34)cc2)cc1 [Example 16, 4-hydroxy-8-[4-(4-methylphenylmethyl)phenyl]pyrazolo[1,5-a]-1,3,5-triazine]
IC50 [2]: 3e-07 M

COc1ccccc1Cc1ccc(-c2cnn3c(O)ncnc23)cc1 [Example 17, 4-hydroxy-8-[4-(2-methoxyphenylmethyl)phenyl]pyrazolo[1,5-a]-1,3,5-triazine]
IC50 [2]: 8.7e-07 M

COc1ccc(Cc2ccc(-c3cnn4c(O)ncnc34)cc2)cc1 [Example 18, 4-hydroxy-8-[4-(4-methoxyphenylmethyl)phenyl]pyrazolo[1,5-a]-1,3,5-triazine]
remaining at 5 min [1]: 96.5%
remaining at 0.25 h [1]: 86.2%
remaining at 0.5 h [1]: 71.6%
remaining at 1 h [1]: 52.4%
half-life [1]: > 60 min

CCCC(c1ccccc1)c1ccc(-c2cnn3c(O)ncnc23)cc1 (stereo not drawn) [Example 20, 4-hydroxy-8-[4-(α-propylbenzyl)phenyl]pyrazolo[1,5-a]-1,3,5-triazine]
IC50 [2]: 2e-07 M

Oc1ncnc2c(-c3ccc(Cc4cccc(Cl)c4)cc3)cnn12 [Example 21, 8-[4-(3-chlorophenylmethyl)phenyl]-4-hydroxypyrazolo[1,5-a]-1,3,5-triazine]
IC50 [2]: 1.1e-07 M

Oc1ncnc2c(-c3ccc(Cc4ccc(Cl)cc4)cc3)cnn12 [Example 22, 8-[4-(4-chlorophenylmethyl)phenyl]-4-hydroxypyrazolo[1,5-a]-1,3,5-triazine]
IC50 [2]: 9.3e-08 M

COc1cccc(C(C)c2ccc(-c3cnn4c(O)ncnc34)cc2)c1 (stereo not drawn) [Example 23, 4-hydroxy-8-{4-[1-(3-methoxyphenyl)ethan-1-yl)phenyl}pyrazolo[1,5-a]-1,3,5-triazine]
IC50 [2]: 2.6e-08 M

COc1cccc(Cc2ccc(-c3cnn4c(O)ccnc34)cc2OC)c1 [Example 24, 7-hydroxy-3-[3-methoxy-4-(3-methoxyphenylmethyl)phenyl]pyrazolo[1,5-a]pyrimidine]
IC50 [2]: 2.6e-08 M

CC(c1ccccc1)c1ccc(-c2cnn3c(O)ccnc23)cc1 (stereo not drawn) [Example 25, 7-hydroxy-3-[4-(α-methylbenzyl)phenyl]pyrazolo[1,5-a]pyrimidine]
IC50 [2]: 2.8e-08 M

COc1cccc(Cc2ccc(-c3cnn4c(O)ccnc34)cc2C)c1 [Example 26, 7-hydroxy-3-[4-(3-methoxyphenylmethyl)-3-methyl]phenylpyrazolo[1,5-a]pyrimidine]
IC50 [2]: 1.3e-08 M

Cc1cccc(Cc2ccc(-c3cnn4c(O)ccnc34)cc2)c1 [Example 27, 7-hydroxy-3-[4-(3-methylphenylmethyl)phenyl]pyrazolo[1,5-a]pyrimidine]
IC50 [2]: 8.2e-08 M

Cc1cccc(Cc2ccc(-c3cnn4c(O)ncnc34)cc2C)c1 [Example 29, 4-hydroxy-8-[3-methyl-4-(3-methylphenylmethyl)phenyl]pyrazolo[1,5-a]-1,3,5-triazine]
IC50 [2]: 2e-08 M

Cc1cccc(Cc2ccc(-c3cnn4c(O)ccnc34)cc2C)c1 [Example 30]
IC50 [2]: 2.5e-08 M

Oc1ncnc2c(-c3ccc(Cc4ccc5c(c4)OCO5)cc3)cnn12 [Example 31, 4-hydroxy-8-[4-(3,4-methylenedioxyphenylmethyl)phenyl]pyrazolo[1,5-a]-1,3,5-triazine]
IC50 [2]: 7.5e-07 M

COc1cc(Cc2ccc(-c3cnn4c(O)ncnc34)cc2)cc(OC)c1 [Example 32, 4-hydroxy-8-[4-(3,5-dimethoxyphenylmethyl)phenyl]pyrazolo[1,5-a]-1,3,5-triazine]
IC50 [2]: 7.7e-07 M

CC(C)(c1ccccc1)c1ccc(-c2cnn3c(O)ncnc23)cc1 [Example 33, 4-hydroxy-8-[4-(2-phenylporpan-2-yl)phenyl]pyrazolo[1,5-a]-1,3,5-triazine]
IC50 [2]: 1.2e-07 M

CC(C)(c1ccccc1)c1ccc(-c2cnn3c(O)ccnc23)cc1 [Example 34, 7-hydroxy-3-[4-(2-phenylpropan-2-yl)phenyl]pyrazolo[1,5-a]pyrimidinie]
IC50 [2]: 9e-08 M

Oc1ccnc2c(-c3ccc(Cc4ccc5c(c4)OCO5)cc3)cnn12 [Example 35, 7-hydroxy-4-[4-(3,4-methylenedioxyphenylmethyl)phenyl]pyrazolo[1,5-a]pyrimidine]
IC50 [2]: 2.2e-07 M
